Laboratory results reported in publication PMC7694175, “Kunitz-Type Peptides from the Sea Anemone Heteractis crispa Demonstrate Potassium Channel Blocking and Anti-Inflammatory Activities” (Biomedicines, 2020).
Where two headings read alike, the source gives them in different places. Bridge positions count the residues as written; N and C are the ends. Ends that are not written are not given here.

Assays:
Kv1.2 = test system: Kv1.2; design: key to IC50 Kv1.2 (class symbol): -: no or weak activity; settings: cited from earlier work
Source text: Table 1 Kunitz-type voltage-gated potassium channel toxins from animal venoms. | column: IC50 (nM) / Kv1.2

Kv1.1 = settings: cited from earlier work
Source text: (§1) Kalicludines block Kv1.2 in µM concentratio ...

Kv1.3 = test system: Kv1.3; design: key to IC50 Kv1.3 (class symbol): -: no or weak activity; settings: cited from earlier work
TNF-α = TNF-α ELISA in blood of mice with carrageenan-induced inflammation; format: in vivo, ICR mice; settings: mouse blood 24 h after carrageenan, indomethacin 5 mg/kg oral
Method: Tests were performed on male ICR mice, with six individuals in each group. A peptide sample was dissolved in sterile saline and administered intravenously at doses of 0.1 and 1.0 mg/kg. Control animals received an equivalent volume of sterile saline. Indomethacin at a dose of 5 mg/kg was used as a positive control and administered orally to animals. Each mouse received 20 μL of a 1% solution of carrageenan in the hind paw pad after 30 min in the case of saline and tested peptide and after 60 min in the case of indomethacin. Then, the resulting edema was measured at several time points (1, 3, 5, and 24 h) using a plethysmometer (Ugo Basile, Gemonio (VA), Italy).
Animals were terminally anaesthetized with sodium pentobarbital ([…] i.p., Euthatal, Merial Animal Health, Essex, UK) 24 h after carrageenan injection. Then the thoracic cavity was opened and blood was collected in tubes with the ethylenediaminetetraacetic acid (EDTA) directly from the right atrium of the heart. The whole blood was centrifuged at 2.5 × 10^3× g for 10 min to remove cells; the blood serum was then aliquoted and stored at −20 °C. These samples were analyzed for TNF-α in the enzyme-linked immunosorbent assay (ELISA) using a diagnostic kit according to the manufacturer’s protocol (CUSABIO BIOTECH Co., Ltd., Houston, TX, USA).

Shaker IR = test system: Shaker IR; design: key to IC50 Shaker IR (class symbol): -: no or weak activity; settings: cited from earlier work
trypsin = settings: cited from earlier work
Kv1.6 = test system: Kv1.6; design: key to IC50 Kv1.6 (class symbol): -: no or weak activity; settings: cited from earlier work
Source text: Table 1 Kunitz-type voltage-gated potassium channel toxins from animal venoms. | column: IC50 (nM) / Kv1.6

[1] = test system: macrophages treated with LPS; settings: ref [68]; cited from earlier work
Source text: Kv1.3 channels have gained a prominent role for their possibility to control neuroinflammatory and autoimmune diseases. Inflammation involves several processes including the activation of inflammatory cells, the secretion of pro-inflammatory cytokines and the release of various inflammatory mediators, leading to symptoms of inflammation such as redness, swelling, fever and pain [67].

crabs = settings: ref [18]; cited from earlier work
[2] = test system: Kv1.1, Kv1.2, and Kv1.6 channels in rat synaptosomal membranes; settings: ref [18], cited from earlier work; for IC50: 125I α-DTX dendrotoxin binding to synaptosomal membranes
Source text: as §1

Molecule: LmKTT-1a: LmKTT-1a (P0DJ46) from scorpion Lychas mucronatus
- IC50 (Kv1.2; ref [50]): > 1000 nM
- IC50 (Kv1.1; ref [50]): > 1000 nM
- IC50 (Kv1.3; ref [50]): 1580 ± 73 nM

Molecule: COc1ccc2c(c1)c(CC(=O)O)c(C)n2C(=O)c1ccc(Cl)cc1 [indomethacin]
- effect on TNF-α synthesis (TNF-α): reduced the synthesis of TNF-α

Molecule: AsKC1: AsKC1 (Q9TWG0) from A. sulcata (INKDCLLPMDVGRCRASHPRYYYNSSSKRCEKFIYGGCRGNANNFHTLEECEKVCGVR; disulfide 14-38, 30-51, 5-55 (inferred); UniProt Q9TWG0 1-58, looked up)
- IC50 (Kv1.2; ref [16]): 2800 nM

Molecule: AsKC2: AsKC2 (Q9TWF9) from A. sulcata (INKDCLLPMDVGRCRARHPRYYYNSSSRRCEKFIYGGCRGNANNFITKKECEKVCGVR; disulfide 14-38, 30-51, 5-55 (inferred); UniProt Q9TWF9 1-58, looked up)
- IC50 (Kv1.2; ref [16]): 1100 nM

Molecule: APEKTx1: APEKTx1 (P61541) from the sea anemone A. elegantissima (GTTCYCGKTIGIYWFGTKTCPSNRGYTGSCGYFLGICCYPVD; UniProt P61541 1-42, looked up)
- IC50 Kv1.2 (class symbol) (Kv1.2; ref [17]): -
- IC50 Shaker IR (class symbol) (Shaker IR; ref [17]): -
- trypsin inhibition (in words) (trypsin; ref [17]): effectively inhibiting trypsin
- IC50 (Kv1.1; ref [17]): 0.9 nM
- Kv1.1 block (in words) (Kv1.1; ref [17]): selectively blocks Kv1.1 channels
- IC50 Kv1.6 (class symbol) (Kv1.6; ref [17]): -
- IC50 Kv1.3 (class symbol) (Kv1.3; ref [17]): -

Molecule: ShPI-1: ShPI-1 (P31713) from S. helianthus (SICSEPKKVGRCKGYFPRFYFDSETGKCTPFIYGGCGGNGNNFETLHQCRAICRA; UniProt P31713 1-55, looked up)
- IC50 (Kv1.2; ref [19]): 9 ± 2 nM
- IC50 Shaker IR (class symbol) (Shaker IR; ref [19]): -
- IC50 (Kv1.1; ref [19]): 117 ± 15 nM
- IC50 (Kv1.6; ref [19]): 9 ± 2 nM
- IC50 Kv1.3 (class symbol) (Kv1.3; ref [19]): -

Molecule: AsKC3: AsKC3 (Q9TWF8) from A. sulcata (INGDCELPKVVGRCRARFPRYYYNLSSRRCEKFIYGGCGGNANNFHTLEECEKVCGVRS; disulfide 14-38, 30-51, 5-55 (inferred); UniProt Q9TWF8 1-59, looked up)
- IC50 (Kv1.2; ref [16]): 1300 nM

Molecule: DTX-I: DTX1 (P00979) from snake Dendroaspis polylepis (QPLRKLCILHRNPGRCYQKIPAFYYNQKKKQCEGFTWSGCGGNSNRFKTIEECRRTCIRK; UniProt P00979 1-60, looked up)
- IC50 (Kv1.2; ref [48]): 0.13 nM
- IC50 (Kv1.1; ref [48]): 3.1 nM

Molecule: DTX-δ: DTX-δ (P00982) from Dendroaspis angusticeps (AAKYCKLPVRYGPCKKKIPSFYYKWKAKQCLPFDYSGCGGNANRFKTIEECRRTCVG; UniProt P00982 1-57, looked up)
- IC50 (Shaker IR; ref [49]): 1000 nM
- IC50 (Kv1.1; ref [49]): 0.01 nM

B1: bikunin: a human Kunitz-type peptide (protein, UniProt P02760 206-352, looked up)
Inter-alpha-trypsin inhibitor …: AVLPQEEEGSGGGQLVTEVTKKEDSCQLGYSAGPCMGMTSRYFYNGTSMACETFQYGGCMGNGNNFVTEKECLQTCRTVAACNLPIVRGPCRAFIQLWAFDAVKGKCVLFPYGGCQGNGNKFYSEKECREYCGVPGDGDEELLRFSN
modifications: Inter-alpha-trypsin inhibitor light chain
notes: a human Kunitz-type peptide
- effect on production of mediators [1]: inhibits the production of thromboxane B2, TNF-α, and IL-8

B2: SHTXIII: SHTXIII (B1B5I8) from S. haddoni (protein, UniProt B1B5I8 20-81, looked up)
KappaPI-stichotoxin-Shd2a: TEEMPALCHLQPDVPKCRGYFPRYYYNPEVGKCEQFIYGGCGGNKNNFVSFEACRATCIIPL
- paralysis of crabs (in words) (crabs): paralyzes crabs
- trypsin inhibition (in words) (trypsin; ref [18]): inhibited trypsin
- IC50 ([2]; column Kv1.1, read-out: IC50 Kv1.1 (125I α-DTX binding)): 270 nM
- IC50 ([2]; column Kv1.2, read-out: IC50 Kv1.2 (125I α-DTX binding)): 270 nM
- IC50 ([2]; column Kv1.6, read-out: IC50 Kv1.6 (125I α-DTX binding)): 270 nM
- competition with the binding of α-DTX (in words) ([2]; rat synaptosomal membranes, at the level of Kv1.1, Kv1.2, and Kv1.6): competed with the binding of α-DTX
